Data from patent US7754718B2 (priority 2004, dated 2010).
Counter-ions that a name gives are not always drawn. Like-named read-outs stand apart in the source and are kept apart here.

Assays:
HBV = test: In vitro antiviral assay for HBV (Table 1); type: cell-based, Hepatitis B virus; settings: read-out: Antiviral Activities (EC50, μM) HBV
HCV [1] = test: Anti-HCV activity in Huh-Luc/neo cell line, luciferase activity after 3-day treatment; type: cell-based, Hepatitis C virus; settings: Huh-Luc/neo cells; for EC50: given as a bound only, read-out: Antiviral Activities (EC50, μM) HCV
HSV-1 = test: In vitro antiviral assay for HSV-1; type: cell-based, Herpes Simplex Virus 1
Procedure, shortened: (§1)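 Performed according to previously reported procedures for each virus; no further conditions are given for the HSV-2, CMV, HIV or EBV assays.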

HSV-2 = test: In vitro antiviral assay for HSV-2; type: cell-based, Herpes Simplex Virus 2
Procedure, shortened: as §1

EBV = test: In vitro antiviral assay for EBV; type: cell-based, Epstein-Barr Virus
Procedure, shortened: as §1

HIV = test: In vitro antiviral assay for HIV; type: cell-based, human immunodeficiency virus; settings: (T) after a value means toxic
Procedure, shortened: as §1

MT-2 cells = test: Cell cytotoxicity assay on MT-2 cells; type: cell-based; settings: read-out: Cytotoxity (ID50, μM) MT-2
Procedure, shortened: (§2)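 MT-2 and CEM cytotoxicity determined per previously reported procedures. HepG2 cells seeded at 10^4 cells/ml in MEME + 10% FBS, compound added on day 2 for 3 further days at 37° C. Viable layer stained with methylene blue, solubilized in 1% sarcosyl, A595 read.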

CEM cells = test: Cell cytotoxicity assay on CEM cells; type: cell-based; settings: read-out: Cytotoxity (ID50, μM) CEM
Procedure, shortened: as §2

HCV [2] = settings: ribavirin alone; cited from earlier work
CMV = test: In vitro antiviral assay for CMV; type: cell-based, cytomegalovirus
Description: The antiviral assays for HBV, (Doong et al., 1991, Proc. Natl. Acad. Sci. U.S.A. 88:8495-8499) HSV-1, (Bastow et al., 1983, Antimicrob. Agents Chemother. 23: 914-917) HSV-2, (Bastow et al., 1983, Antimicrob. Agents Chemother. 23:914-917) EBV, (Yao et al., 1993, Antimicrob. Agents Chemother. 37:1420-1425), CMV (Andreoni et al., 2002, J. Med. Virol. 67:33-40) and HIV (Mellors et al., 1992, Mol. Pharmacol. 41: 446-451) were performed according to the previously reported procedures. Anti-HCV activities were tested in Huh-Luc/neo cell line. Cells were seeded into 48-well plates and grown until confluent. Different concentrations of drugs were added into media (DMEM, 10% dFBS) and incubated for 3 days. At the end of 3-day treatment, medium were removed and 50 μl of Passive lysis buffer (Promega) were added. Cell lysate was shaken at room temperature for 15 min. 30 μl/well of cell lysate was transferred to another 96-well plate, 100 μl/well of luciferase activity assay substrate was added into plate and read by a luminometer (Amersham) immediately.

HCV [3] = settings: patients chronically infected with HCV, IFN as sole treatment; cited from earlier work
[4] = Cell cytotoxicity assay on MT-2 cells; type: cell-based; settings: human, read-out: Cytotoxity (ID50, μM) MT-2
Procedure, shortened: as §2

[5] = Cell cytotoxicity assay on CEM cells; type: cell-based; settings: human, read-out: Cytotoxity (ID50, μM) CEM
Procedure, shortened: as §2

[6] = in vitro, read-out: Antiviral Activities (EC50, μM) HSV-1
[7] = in vitro, read-out: Antiviral Activities (EC50, μM) HSV-2
[8] = in vitro, read-out: Antiviral Activities (EC50, μM) EBV
[9] = in vitro, read-out: Antiviral Activities (EC50, μM) HIV

| Molecule | EC50 (HBV; in vitro) [µM] | EC50 (HSV-1; [6]) [µM] | EC50 (HSV-2; [7]) [µM] | EC50 (EBV; [8]) [µM] | EC50 (HIV; [9]) [µM] | IC50 (MT-2 cells) [µM] | IC50 (CEM cells) [µM] | other results |
| --- | --- | --- | --- | --- | --- | --- | --- | --- |
| O=C1c2cc3ccc4c(c3c(-c3ccc5c(c3)OCO5)c2C(=O)N1CCCOCc1ccccc1)OCO4 [Compound 10, 10-Benzo[1,3]dioxol-5-yl-8-(3-benzyloxy-propyl)-1,3-dioxa-8-aza-dicycloplenta[a,g]naphthalene-7,9-dione] | > 10 | > 50 | > 50 | > 5 | > 100 | > 100 | > 100 | HCV percent of inhibition (HCV [1]; at 10 μM, 3 days): 62% |
| O=C1NCc2cc3ccc4c(c3c(-c3ccc5c(c3)OCO5)c21)OCO4 [Compound 16, 10-Benzo[1,3]dioxol-5-yl-7,8-dihydro-13-dioxa-8-aza-dicyclopenta[a,g]naphthalen-9-one] | > 10 | > 50 | > 50 | > 20 | > 100 | > 100 | 90 | EC50 (HCV [1]; 3 days): > 10 µM |
| NC(=O)c1ncn([C@@H]2O[C@H](CO)[C@@H](O)[C@H]2O)n1 [Ribavirin, 1-beta-D-ribofuranosyl-1-1,2,4-triazole-3-carboxamide] | – | – | – | – | – | – | – | patients in whom serum amino transferase levels are reduced to normal (HCV [2]): 40% |
| O=C(O)c1cc2c(Br)cc3c(c2c(-c2ccc4c(c2)OCO4)c1CO)OCO3 [Compound 45, 9-Benzo[1,3]dioxol-5-yl-5-bromo-8-hydroxymethyl-naphtho[1,2-d][1.3]dioxole-7-carboxylic acid monosodium salt] | > 10 | > 50 | > 50 | > 20 | > 50 | 50 | 46.5 | EC50 (CMV; in vitro, read-out: Antiviral Activities (EC50, μM) CMV): > 20 µM |
| O=c1[nH][nH]c(=O)c2c(-c3ccc4c(c3)OCO4)c3c4c(cc(Br)c3cc12)OCO4 [Compound 42, 11-Benzo[1,3]dioxol-5-yl-5-bromo-8,9-dihydro-[1,3]dioxa-8,9-diaza-cyclopenta[a]anthracene-7,10-dione] | > 20 | 16 | > 20 | > 20 | – | > 100 | 28 | HCV percent of inhibition (HCV [1]; at 3 μM, 3 days): 45% |
| Interferon | – | – | – | – | – | – | – | HCV column: concentration at which the percent of inhibition was seen (HCV [1]; Interferon control): 10 u/ml; HCV percent of inhibition (HCV [1]; at 10 u/ml): (90) %; patients with a sustained response (HCV [3]): 8%-9% |
| O=C1c2cc3ccc4c(c3c(-c3ccc5c(c3)OCO5)c2C(=O)N1CCCO)OCO4 [Compound 29, 10-Benzo[1,3]dioxol-5-yl-8-(3-hydroxy-propyl)-1,3-dioxa-8-aza-dicyclopenta[a,g]naphthalene-7,9-dione] | – | – | – | – | – | – | – | EC50 (HBV; Hepatitis B virus): > 5 µM; EC50 (HCV [1]; Hepatitis C virus, 72 h, 3 days): > 10 µM; EC50 (HSV-1; Human alphaherpesvirus 1, read-out: Antiviral Activities (EC50, μM) HSV-1): > 30 µM; EC50 (HSV-2; Human alphaherpesvirus 2, read-out: Antiviral Activities (EC50, μM) HSV-2): > 30 µM; EC50 (EBV; human gammaherpesvirus 4, read-out: Antiviral Activities (EC50, μM) EBV): > 5 µM; EC50 (CMV; Human betaherpesvirus 5, read-out: Antiviral Activities (EC50, μM) CMV): 8.1 µM; EC50 (HIV; Human immunodeficiency virus 1, read-out: Antiviral Activities (EC50, μM) HIV, in vitro): > 22 µM; IC50 [4]: 22 µM; IC50 [5]: 27 µM; melting point: 150 to 152 °C |
